According to ChEMBL document CHEMBL6153110, “Peptide Double-Stapling and Arginine N-Glycosylation Triggered the Development of Therapeutic Antimicrobial Peptides Capable of Killing Drug-Resistant Bacteria in Mice” (J Med Chem, 2025):
In brackets after ≈: the same amount, converted by molar mass. Positions of bridges follow the written chain, without caps; N, C: chain ends. Non-standard residues stand in square brackets, D forms with d. Residues, ends and D or L forms follow the SMILES beside them. R8 = C=CCCCCCC[C@@](C)(N)C(=O)O; S5 = C=CCCC[C@](C)(N)C(=O)O

How the values were obtained:
Type in all cases: functional
Klebsiella pneumoniae = assay: Antimicrobial activity against Klebsiella pneumoniae ATCC 13883 assessed as growth inhibition measured after 8 hrs incubation by standard broth dilution assay
Staphylococcus aureus = assay: Antimicrobial activity against methicillin-resistant Staphylococcus aureus ATCC 43300 assessed as growth inhibition measured after 8 hrs incubation by standard broth dilution assay
Pseudomonas aeruginosa = assay: Antimicrobial activity against Pseudomonas aeruginosa ATCC 27853 assessed as growth inhibition measured after 8 hrs incubation by standard broth dilution assay
Streptococcus pneumoniae = assay: Antimicrobial activity against Streptococcus pneumoniae ATCC 49619 assessed as growth inhibition measured after 8 hrs incubation by standard broth dilution assay

CC(=O)N[C@@H](CC(C)C)C(=O)N[C@@H](CCCCN)C(=O)N[C@@H](CCCNC(=N)N)C(=O)N[C@H](C(=O)N[C@]1(C)CCCCCC/C=C\CCC[C@@](C)(C(=O)N[C@@H](CCCCN)C(=O)N[C@@H](CCCNC(=N)N)C(=O)N[C@@H](Cc2ccc(O)cc2)C(=O)N[C@@H](Cc2c[nH]c3ccccc23)C(=O)N[C@@H](CCCNC(=N)N)C(=O)N[C@@H](CCC(N)=O)C(=O)N[C@@H](CC(C)C)C(=O)N[C@@H](CCCCN)C(=O)N[C@@H](CCCCN)C(=O)N2CCC[C@H]2C(=O)N[C@H](C(=O)N[C@@H](CCCNC(=N)N)C(N)=O)C(C)C)NC(=O)[C@H](CC(C)C)NC(=O)[C@H](CCCCN)NC(=O)[C@H](Cc2ccccc2)NC(=O)[C@H](C(C)C)NC(=O)[C@H](CCCNC(=N)N)NC(=O)[C@H](CCCCN)NC1=O)C(C)C (Ac-LKRV[R8]KRVFKL[S5]KRYWRQLKKPVR-NH2; staple (Z) 5-12)
MIC (Klebsiella pneumoniae): 38 µg/mL (≈ 11.7 µM) | MIC (Staphylococcus aureus): 9.7 µg/mL (≈ 2.98 µM) | MIC (Pseudomonas aeruginosa): 19.3 µg/mL (≈ 5.92 µM) | MIC (Streptococcus pneumoniae): 9.6 µg/mL (≈ 2.94 µM)

CC(=O)N[C@@H](CC(C)C)C(=O)N[C@@H](CCCCN)C(=O)N[C@@H](CCCNC(=N)N)C(=O)N[C@H](C(=O)N[C@@]1(C)CCC/C=C\CCC[C@@](C)(C(=O)N[C@@H](CCCCN)C(=O)N[C@@H](CC(C)C)C(=O)N[C@@H](CC(C)C)C(=O)N[C@@H](CCCCN)C(=O)N[C@@H](CCCNC(=N)N)C(=O)N[C@@H](Cc2ccc(O)cc2)C(=O)N[C@@H](Cc2c[nH]c3ccccc23)C(=O)N[C@@H](CCCNC(=N)N)C(=O)N[C@@H](CCC(N)=O)C(=O)N[C@@H](CC(C)C)C(=O)N[C@@H](CCCCN)C(=O)N[C@@H](CCCCN)C(=O)N2CCC[C@H]2C(=O)N[C@H](C(=O)N[C@@H](CCCNC(=N)N)C(N)=O)C(C)C)NC(=O)[C@H](C(C)C)NC(=O)[C@H](CCCNC(=N)N)NC(=O)[C@H](CCCCN)NC1=O)C(C)C (Ac-LKRV[S5]KRV[S5]KLLKRYWRQLKKPVR-NH2; staple (Z) 5-9)
MIC (Klebsiella pneumoniae): 38 µg/mL (≈ 11.9 µM) | MIC (Staphylococcus aureus): 2.5 µg/mL (≈ 0.785 µM) | MIC (Pseudomonas aeruginosa): 2.6 µg/mL (≈ 0.817 µM) | MIC (Streptococcus pneumoniae): 37.7 µg/mL (≈ 11.8 µM)

CC(=O)N[C@@H](CC(C)C)C(=O)N[C@@H](CCCCN)C(=O)N[C@@H](CCCNC(=N)N)C(=O)N[C@]1(C)CCCCCC/C=C\CCC[C@@](C)(C(=O)N[C@@H](CC(C)C)C(=O)N[C@@H](CCCCN)C(=O)N[C@@H](CCCNC(=N)N)C(=O)N[C@@H](Cc2ccc(O)cc2)C(=O)N[C@@H](Cc2c[nH]c3ccccc23)C(=O)N[C@@H](CCCNC(=N)N)C(=O)N[C@@H](CCC(N)=O)C(=O)N[C@@H](CC(C)C)C(=O)N[C@@H](CCCCN)C(=O)N[C@@H](CCCCN)C(=O)N2CCC[C@H]2C(=O)N[C@H](C(=O)N[C@@H](CCCNC(=N)N)C(N)=O)C(C)C)NC(=O)[C@H](CCCCN)NC(=O)[C@H](Cc2ccccc2)NC(=O)[C@H](C(C)C)NC(=O)[C@H](CCCNC(=N)N)NC(=O)[C@H](CCCCN)NC(=O)[C@H](Cc2c[nH]c3ccccc23)NC1=O (Ac-LKR[R8]WKRVFK[S5]LKRYWRQLKKPVR-NH2; staple (Z) 4-11)
MIC (Klebsiella pneumoniae): 38 µg/mL (≈ 11.4 µM) | MIC (Staphylococcus aureus): 4.9 µg/mL (≈ 1.46 µM) | MIC (Pseudomonas aeruginosa): 5 µg/mL (≈ 1.49 µM) | MIC (Streptococcus pneumoniae): 37.7 µg/mL (≈ 11.3 µM)

CC(=O)N[C@@H](CC(C)C)C(=O)N[C@@H](CCCCN)C(=O)N[C@@H](CCCNC(=N)N)C(=O)N[C@@]1(C)CCC/C=C\CCC[C@@](C)(C(=O)N[C@@H](Cc2ccccc2)C(=O)N[C@@H](CCCCN)C(=O)N[C@@H](CC(C)C)C(=O)N[C@@H](CC(C)C)C(=O)N[C@@H](CCCCN)C(=O)N[C@@H](CCCNC(=N)N)C(=O)N[C@@H](Cc2ccc(O)cc2)C(=O)N[C@@H](Cc2c[nH]c3ccccc23)C(=O)N[C@@H](CCCNC(=N)N)C(=O)N[C@@H](CCC(N)=O)C(=O)N[C@@H](CC(C)C)C(=O)N[C@@H](CCCCN)C(=O)N[C@@H](CCCCN)C(=O)N2CCC[C@H]2C(=O)N[C@H](C(=O)N[C@@H](CCCNC(=N)N)C(N)=O)C(C)C)NC(=O)[C@H](CCCNC(=N)N)NC(=O)[C@H](CCCCN)NC(=O)[C@H](Cc2c[nH]c3ccccc23)NC1=O (Ac-LKR[S5]WKR[S5]FKLLKRYWRQLKKPVR-NH2; staple (Z) 4-8)
MIC (Klebsiella pneumoniae): 38 µg/mL (≈ 11.4 µM) | MIC (Staphylococcus aureus): 2.5 µg/mL (≈ 0.753 µM) | MIC (Pseudomonas aeruginosa): 5 µg/mL (≈ 1.51 µM) | MIC (Streptococcus pneumoniae): 37.7 µg/mL (≈ 11.4 µM)

CC(=O)N[C@@H](CC(C)C)C(=O)N[C@]1(C)CCCCCC/C=C\CCC[C@@](C)(C(=O)N[C@@H](CCCCN)C(=O)N[C@@H](CC(C)C)C(=O)N[C@@H](CC(C)C)C(=O)N[C@@H](CCCCN)C(=O)N[C@@H](CCCNC(=N)N)C(=O)N[C@@H](Cc2ccc(O)cc2)C(=O)N[C@@H](Cc2c[nH]c3ccccc23)C(=O)N[C@@H](CCCNC(=N)N)C(=O)N[C@@H](CCC(N)=O)C(=O)N[C@@H](CC(C)C)C(=O)N[C@@H](CCCCN)C(=O)N[C@@H](CCCCN)C(=O)N2CCC[C@H]2C(=O)N[C@H](C(=O)N[C@@H](CCCNC(=N)N)C(N)=O)C(C)C)NC(=O)[C@H](C(C)C)NC(=O)[C@H](CCCNC(=N)N)NC(=O)[C@H](CCCCN)NC(=O)[C@H](Cc2c[nH]c3ccccc23)NC(=O)[C@H](C(C)C)NC(=O)[C@H](CCCNC(=N)N)NC1=O (Ac-L[R8]RVWKRV[S5]KLLKRYWRQLKKPVR-NH2; staple (Z) 2-9)
MIC (Klebsiella pneumoniae): 38 µg/mL (≈ 11.6 µM) | MIC (Staphylococcus aureus): 9.7 µg/mL (≈ 2.95 µM) | MIC (Pseudomonas aeruginosa): 9.8 µg/mL (≈ 2.98 µM) | MIC (Streptococcus pneumoniae): 37.7 µg/mL (≈ 11.5 µM)
